US9156872B2, “2′-azido substituted nucleoside derivatives and methods of use thereof for the treatment of viral diseases” (priority 2011, dated 2015)

Test system: HCV replicon cells
Experiment: Cell-based HCV replicon assay (replicon RNA by Taqman real time PCR)
Details: HCV replicon 1b, cells harvested on day 3; read-out: 1b EC50

SMILES	EC50 [µM]
COC(=O)[C@H](C)NP1(=O)OC[C@H]2O[C@@H](n3ccc(N)nc3=O)[C@](C)(N=[N+]=[N-])[C@@H]2O1 (single isomer, unassigned) [Compound 530]	67
C[C@@]1(N=[N+]=[N-])[C@@H]2OP(=O)(OC3CCCC3)OC[C@H]2O[C@H]1n1ccc(=O)[nH]c1=O (stereo partly drawn) [Compound 87]	3.1
CC(C)OP1(=O)OC[C@H]2O[C@@H](n3ccc(=O)[nH]c3=O)[C@](C)(N=[N+]=[N-])[C@@H]2O1 (stereo partly drawn) [Compound 44]	> 100

Same assay, conditions: Hepatitis C virus, 72 h, HCV replicon 1b, cells harvested on day 3; read-out: 1b EC50

SMILES	EC50 [µM]
CCOc1nc(N)nc2c1ncn2[C@@H]1O[C@@H]2COP(=O)(OC3CCCCC3)O[C@H]2[C@@]1(C)N=[N+]=[N-] (stereo partly drawn) [Compound 106]	49.9
COc1nc(N)nc2c1ncn2[C@@H]1O[C@@H]2COP(=O)(OC3CCCC3)O[C@H]2[C@@]1(C)N=[N+]=[N-] (stereo partly drawn) [Compound 105]	17.1
CCOc1nc(N)nc2c1ncn2[C@@H]1O[C@@H]2COP(=O)(NC3CCCCC3)O[C@H]2[C@@]1(C)N=[N+]=[N-] (stereo partly drawn) [Compound 572]	100
C[C@H](NP(=O)(O)OC[C@H]1O[C@@H](n2ccc(=O)[nH]c2=O)[C@](C)(N=[N+]=[N-])[C@@H]1O)C(=O)OC1CCCCC1 (single isomer, unassigned) [Compound 329]	> 100
CCCOP1(=O)OC[C@H]2O[C@@H](n3ccc(N)nc3=O)[C@](C)(N=[N+]=[N-])[C@@H]2O1 (stereo partly drawn) [Compound 33]	> 100
CCCOP1(=O)OC[C@H]2O[C@@H](n3ccc(=O)[nH]c3=O)[C@](C)(N=[N+]=[N-])[C@@H]2O1 (stereo partly drawn) [Compound 85]	> 100

Same assay, conditions: Hepatitis C virus, 72 h, read-out: 1b EC50

SMILES	EC50 [µM]
CCOc1nc(N)nc2c1ncn2[C@@H]1O[C@H](COP(=O)(N[C@@H](C)C(=O)OCC(C)(C)C)Oc2ccccc2Cl)[C@@H](O)[C@@]1(C)N=[N+]=[N-] (stereo partly drawn) [Compound 357]	100
COc1nc(N)nc2c1ncn2[C@@H]1O[C@H](COP(=O)(N[C@@H](C)C(=O)OC2CCCCC2)Oc2ccc(F)cc2)[C@@H](O)[C@@]1(C)N=[N+]=[N-] (stereo partly drawn) [Compound 241]	1.9
CCOC(=O)c1cccc(OP(=O)(N[C@@H](C)C(=O)OC)OC[C@H]2O[C@@H](n3ccc(=O)[nH]c3=O)[C@](C)(N=[N+]=[N-])[C@@H]2O)c1 (stereo partly drawn) [Compound 222]	0.01
C[C@H](NP(=O)(OC[C@H]1O[C@@H](n2ccc(N)nc2=O)[C@](C)(N=[N+]=[N-])[C@@H]1O)Oc1ccc(Cl)cc1)C(=O)OC1CCCCC1 (single isomer, unassigned) [Compound 339]	14
CCOC(=O)[C@H](C)NP(=O)(OC[C@H]1O[C@@H](n2cnc3c(N4CCC4)nc(N)nc32)[C@](C)(N=[N+]=[N-])[C@@H]1O)Oc1ccccc1 (stereo partly drawn) [Compound 391]	1.5
COc1nc(N)nc2c1ncn2[C@@H]1O[C@H](COP(=O)(N[C@@H](C)C(=O)OC(C)C)Oc2ccc(Cl)cc2)[C@@H](O)[C@@]1(C)N=[N+]=[N-] (single isomer, unassigned) [Compound 293]	5.7
COC(=O)[C@H](C)NP(=O)(OC[C@H]1O[C@@H](n2ccc(N)nc2=O)[C@](C)(N=[N+]=[N-])[C@@H]1O)Oc1ccc(Cl)c(Cl)c1 (single isomer, unassigned) [Compound 343]	61
COC(=O)[C@H](C)NP(=O)(OC)OC[C@H]1O[C@@H](n2ccc(N)nc2=O)[C@](C)(N=[N+]=[N-])[C@@H]1O (single isomer, unassigned) [Compound 345]	> 100
COC(=O)[C@H](C)NP(=O)(OC[C@H]1O[C@@H](n2cnc3c(NC4CC4)nc(N)nc32)[C@](C)(N=[N+]=[N-])[C@@H]1O)Oc1ccccc1Cl (stereo partly drawn) [Compound 385]	1.4
COC(=O)[C@H](C)NP(=O)(OC[C@H]1O[C@@H](n2cnc3c(OC)nc(N)nc32)[C@](C)(N=[N+]=[N-])[C@@H]1O)Oc1ccc(F)cc1 (stereo partly drawn) [Compound 242]	2.6
CCOc1nc(N)nc2c1ncn2[C@@H]1O[C@H](COP(=O)(N[C@@H](C)C(=O)OC)Oc2cccc3ccccc23)[C@@H](O)[C@@]1(C)N=[N+]=[N-] (stereo partly drawn) [Compound 70]	0.4
C[C@H](NP(=O)(OC[C@H]1O[C@@H](n2ccc(=O)[nH]c2=O)[C@](C)(N=[N+]=[N-])[C@@H]1O)Oc1ccc(Cl)cc1)C(=O)OCc1ccccc1 (stereo partly drawn) [Compound 304]	60
CCOC(=O)[C@H](C)NP(=O)(OC[C@H]1O[C@@H](n2cnc3c(NC4CC4)nc(N)nc32)[C@](C)(N=[N+]=[N-])[C@@H]1O)Oc1ccccc1 (stereo partly drawn) [Compound 387]	1.9
CCOC(=O)[C@H](C)NP(=O)(OC[C@H]1O[C@@H](n2ccc(=O)[nH]c2=O)[C@](C)(N=[N+]=[N-])[C@@H]1O)Oc1ccc(Cl)cc1 (stereo partly drawn) [Compound 49]	5.3
CCCCOC(=O)[C@H](C)NP(=O)(OC[C@H]1O[C@@H](n2ccc(=O)[nH]c2=O)[C@](C)(N=[N+]=[N-])[C@@H]1O)Oc1ccccc1 (stereo partly drawn) [Compound 26]	0.6
CCCCOC(=O)[C@H](C)NP(=O)(OC[C@H]1O[C@@H](n2ccc(N)nc2=O)[C@](C)(N=[N+]=[N-])[C@@H]1O)Oc1cccc2ccccc12 (stereo partly drawn) [Compound 3]	1.2
CCOc1nc(N)nc2c1ncn2[C@@H]1O[C@H](COP(=O)(N[C@@H](C)C(=O)OC)Oc2ccccc2Cl)[C@@H](O)[C@@]1(C)N=[N+]=[N-] (single isomer, unassigned) [Compound 309]	0.57
CCOc1nc(N)nc2c1ncn2[C@@H]1O[C@H](COP(=O)(N[C@@H](C)C(=O)OC)Oc2ccc(Cl)cc2)[C@@H](O)[C@@]1(C)N=[N+]=[N-] (stereo partly drawn) [Compound 63]	0.4
CCOc1nc(N)nc2c1ncn2[C@@H]1O[C@H](COP(=O)(N[C@@H](C)C(=O)OCC(C)(C)C)Oc2ccccc2)[C@@H](O)[C@@]1(C)N=[N+]=[N-] (stereo partly drawn) [Compound 11]	1.1
COP1(=O)OC[C@H]2O[C@@H](n3ccc(=O)[nH]c3=O)[C@](C)(N=[N+]=[N-])[C@@H]2O1 (stereo partly drawn) [Compound 18]	> 100

Same assay, conditions: read-out: 1b EC50

SMILES	EC50 [µM]
CCOc1nc(N)nc2c1ncn2[C@@H]1O[C@H](COP(=O)(N[C@@H](C)C(=O)OC(C)C)Oc2ccccc2Cl)[C@@H](O)[C@@]1(C)N=[N+]=[N-] (single isomer, unassigned) [Compound 315]	9.2
C[C@H](NP(=O)(OC[C@H]1O[C@@H](n2ccc(N)nc2=O)[C@](C)(N=[N+]=[N-])[C@@H]1O)Oc1ccccc1)C(=O)OC1CCCC1 (stereo partly drawn) [Compound 205]	15
C[C@H](NP(=O)(OC[C@H]1O[C@@H](n2ccc(=O)[nH]c2=O)[C@](C)(N=[N+]=[N-])[C@@H]1O)Oc1ccccc1)C(=O)OCC(C)(C)C (single isomer, unassigned) [Compound 154]	0.7
CCOC(=O)c1ccccc1OP(=O)(N[C@@H](C)C(=O)OC)OC[C@H]1O[C@@H](n2ccc(=O)[nH]c2=O)[C@](C)(N=[N+]=[N-])[C@@H]1O (single isomer, unassigned) [Compound 226]	26
COC(=O)[C@H](C)NP(=O)(OC[C@H]1O[C@@H](n2cnc3c(N4CCC4)nc(N)nc32)[C@](C)(N=[N+]=[N-])[C@@H]1O)Oc1ccccc1Cl (stereo partly drawn) [Compound 389]	2.3
CCOc1nc(N)nc2c1ncn2[C@@H]1O[C@H](COP(=O)(N[C@@H](C)C(=O)OC2CCC2)Oc2ccccc2)[C@@H](O)[C@@]1(C)N=[N+]=[N-] (single isomer, unassigned) [Compound 363]	0.2
COC(=O)[C@H](C)NP(=O)(OC[C@H]1O[C@@H](n2ccc(N)nc2=O)[C@](C)(N=[N+]=[N-])[C@@H]1O)Oc1ccc(F)cc1 (single isomer, unassigned) [Compound 188]	5.6
C[C@H](NP(=O)(OC[C@H]1O[C@@H](n2ccc(=O)[nH]c2=O)[C@](C)(N=[N+]=[N-])[C@@H]1O)Oc1ccc2c(c1)OCO2)C(=O)OCc1ccccc1 (stereo partly drawn) [Compound 306]	1.3
COc1nc(N)nc2c1ncn2[C@@H]1O[C@H](COP(=O)(N[C@@H](C)C(=O)OCc2ccccc2)Oc2ccccc2)[C@@H](O)[C@@]1(C)N=[N+]=[N-] (single isomer, unassigned) [Compound 278]	7.3
CCOC(=O)[C@H](C)NP(=O)(OC[C@H]1O[C@@H](n2cnc3c(OC)nc(N)nc32)[C@](C)(N=[N+]=[N-])[C@@H]1O)Oc1ccccc1 (stereo partly drawn) [Compound 54]	0.3
C[C@H](NP(=O)(OC[C@H]1O[C@@H](n2ccc(=O)[nH]c2=O)[C@](C)(N=[N+]=[N-])[C@@H]1O)Oc1ccc(F)cc1)C(=O)OC1CCCCC1 (stereo partly drawn) [Compound 89]	> 100
COC(=O)c1ccccc1OP(=O)(N[C@@H](C)C(=O)OC)OC[C@H]1O[C@@H](n2ccc(=O)[nH]c2=O)[C@](C)(N=[N+]=[N-])[C@@H]1O (single isomer, unassigned) [Compound 215]	3.1
C[C@H](NP(=O)(OC[C@H]1O[C@@H](n2ccc(N)nc2=O)[C@](C)(N=[N+]=[N-])[C@@H]1O)Oc1ccccc1)C(=O)OCc1ccccc1 (single isomer, unassigned) [Compound 192]	19
COc1nc(N)nc2c1ncn2[C@@H]1O[C@H](COP(=O)(N[C@@H](C)C(=O)OC(C)C)Oc2ccccc2Cl)[C@@H](O)[C@@]1(C)N=[N+]=[N-] (single isomer, unassigned) [Compound 280]	5
CCCOC(=O)[C@H](C)NP(=O)(OC[C@H]1O[C@@H](n2cnc3c(OC)nc(N)nc32)[C@](C)(N=[N+]=[N-])C1O)Oc1ccccc1 (single isomer, unassigned) [Compound 288]	0.9
C[C@H](NP(=O)(OC[C@H]1O[C@@H](n2ccc(=O)[nH]c2=O)[C@](C)(N=[N+]=[N-])[C@@H]1O)Oc1ccc(F)cc1)C(=O)OC1CCCCC1 (single isomer, unassigned) [Compound 232]	> 100
COc1nc(N)nc2c1ncn2[C@@H]1O[C@H](COP(=O)(N[C@@H](C)C(=O)OC2CCCCC2)Oc2ccc(F)cc2)[C@@H](O)[C@@]1(C)N=[N+]=[N-] (single isomer, unassigned) [Compound 264]	0.2
CCOc1nc(N)nc2c1ncn2[C@@H]1O[C@H](COP(=O)(N[C@@H](C)C(=O)OC(C)C)Oc2ccc(Cl)c(Cl)c2)[C@@H](O)[C@@]1(C)N=[N+]=[N-] (single isomer, unassigned) [Compound 360]	4.8
CCCCOC(=O)[C@H](C)NP(=O)(OC[C@H]1O[C@@H](n2cnc3c(OCC)nc(N)nc32)[C@](C)(N=[N+]=[N-])[C@@H]1O)Oc1cccc2ccccc12 (single isomer, unassigned) [Compound 172]	0.4
